Earlier results, collected in patent publication US7074797B2, “Pyrazolopyrimidines as CRF receptor antagonists” (Neurocrine Biosciences, Inc., priority 1996, dated 2006).
No end group written: not given here.

Experiments:
Rats [1] = details: central administration
Rats [2] = details: ICV, animals previously familiarized with the apparatus, fifteen minute session

For “CRF: corticotropin-releasing factor, a 41-amino acid peptide (SEEPPISLDLTFHLLREVLEMARAEQLAQQAHSNRKLMEII-NH2; ends and bridges not checked; UniProt P06850 154-194, looked up)”, the “exploration in the elevated plus maze” value (Rats [1]) is listed as “suppresses exploration”, the “latency to emerge from the small chamber” value (Rats [2]) is listed as “increases” and the “mean time spent in the chamber” value (Rats [2]) is listed as “increases”.
